Reference: PMC12000251, “Evaluation of the Anti-Inflammatory Effects of Novel Fatty Acid-Binding Protein 4 Inhibitors in Microglia” (Journal of Neuroimmune Pharmacology, 2025)
Where “and” joins values, the source holds several entries; their conditions need not be identical. Equal values may be shown once.

Legend:
Format in all cases: cell-based, mouse
LPS-activated BV-2 cells [1] = test: Intracellular ROS (DCF-DA) in LPS-activated BV-2 cells
Description: BV-2 cells were cultured in DMEM/F-12 media supplemented with 10% (v/v) FBS and 1% (v/v) penicillin/streptomycin, and kept at 37 °C in a humidified incubator ([…], 5% CO2) for all studies. Cells with 80% confluency were used for experiments. […] In some experiments (detailed in Results), BV-2 cells were exposed to MFP compounds for 2 h before a 24 h exposure to LPS and MFP compounds, and in some studies, in the presence of FABP4 siRNA using a 24 h treatment that we have previously employed (Low et al. [2021]). In brief, BV-2 cells were washed once 4 h post-seeding with blank DMEM/F-12 media. siRNA complexes (containing FABP4 siRNA, target sequence 5’-[…]-3’ or AllStar Negative Control siRNA, target sequence proprietary) were added dropwise onto the cells. siRNA complexes were prepared by mixing siRNA and HiPerfect transfection reagent together in FBS-free DMEM/F12 media and incubating for 15 min to allow the siRNA complexes to form. The cells were incubated with the siRNA complex for 5 min, after which, DMEM/F12 media containing FBS was added into each well to dilute the siRNA complexes to 5 nM.
Intracellular ROS in BV-2 cells, following treatment with MFP compounds and LPS, was detected using the widely-used membrane permeable probe, DCF-DA. Post treatment, BV-2 cells were rinsed once with warm HBSS prior to being incubated with 40 µM of DCF-DA for 30 min at 37°C, 5% CO2. The wells were then rinsed again with HBSS before being read on a Perkin-Elmer Enspire plate reader (λex: 488 nm, λem: 535 nm) as we have reported previously (Kagawa et al. [2023]).

BV-2 cells = test: MTT assay of BV-2 cell viability; details: 24 h
Description: BV-2 cells were cultured in DMEM/F-12 media supplemented with 10% (v/v) FBS and 1% (v/v) penicillin/streptomycin, and kept at 37 °C in a humidified incubator ([…], 5% CO2) for all studies. Cells with 80% confluency were used for experiments. At 24 h post-seeding, BV-2 cells were treated with either of the MFP compounds (at concentrations detailed below) or vehicle (0.1% (v/v) DMSO) and 1 µg/mL LPS for a period of 24 h. In some experiments (detailed in Results), BV-2 cells were exposed to MFP compounds for 2 h before a 24 h exposure to LPS and MFP compounds, and in some studies, in the presence of FABP4 siRNA using a 24 h treatment that we have previously employed (Low et al. [2021]). In brief, BV-2 cells were washed once 4 h post-seeding with blank DMEM/F-12 media. siRNA complexes (containing FABP4 siRNA, target sequence 5’-[…]-3’ or AllStar Negative Control siRNA, target sequence proprietary) were added dropwise onto the cells. siRNA complexes were prepared by mixing siRNA and HiPerfect transfection reagent together in FBS-free DMEM/F12 media and incubating for 15 min to allow the siRNA complexes to form. The cells were incubated with the siRNA complex for 5 min, after which, DMEM/F12 media containing FBS was added into each well to dilute the siRNA complexes to 5 nM.
To determine the most appropriate and tolerable concentration of MFP compounds in BV-2 cells, an MTT assay was performed. Following treatment with increasing concentrations of MFP compounds for 24 h, BV-2 cells were rinsed once with PBS prior to being incubated with 0.45 mg/mL MTT reagent for 4 h in a 37 °C, 5% CO2 incubator. After that, the MTT reagent was removed and 150 µL of DMSO was added into all wells for 30 min. The plate was then immediately read on a Perkin-Elmer Enspire fluorescence plate reader (Boston, MA) at 540 nm. Background subtraction was performed before the percentage cell viability was calculated and expressed as a ratio of mean absorbance of MFP-treated cells over mean absorbance of vehicle-treated cells.

LPS-activated BV-2 cells [2] = test: RT-qPCR for TNF-α mRNA expression in LPS-activated BV-2 cells; details: 10 µM, 1 µg/mL LPS 24 h
Description: (§1) BV-2 cells were cultured in DMEM/F-12 media supplemented with 10% (v/v) FBS and 1% (v/v) penicillin/streptomycin, and kept at 37 °C in a humidified incubator ([…], 5% CO2) for all studies. Cells with 80% confluency were used for experiments. At 24 h post-seeding, BV-2 cells were treated with either of the MFP compounds (at concentrations detailed below) or vehicle (0.1% (v/v) DMSO) and 1 µg/mL LPS for a period of 24 h. In some experiments (detailed in Results), BV-2 cells were exposed to MFP compounds for 2 h before a 24 h exposure to LPS and MFP compounds, and in some studies, in the presence of FABP4 siRNA using a 24 h treatment that we have previously employed (Low et al. [2021]). […]
RT-qPCR was performed to determine the amount of TNF-α mRNA following the required cell treatments, as previously described (Low et al. [2020]). […] The concentration and purity of the isolated RNA was assessed using a Thermo Fisher Nanodrop 1000 spectrophotometer (Rockford, IL). […] The threshold cycles (Ct) were automatically calculated using the CFX manager software. […]

LPS-activated BV-2 cells [3] = test: TNF-α ELISA of supernatant of LPS-activated BV-2 cells
Description: as §1
ELISA was performed as per manufacturer’s protocol to measure the concentration of TNF-α in the supernatant in which BV-2 cells were treated. […] 100 µL of Stop solution was added into each well before the plate was immediately read on a Perkin-Elmer Enspire fluorescence plate reader at 450 nm […] and 570 nm (absorbance). Absorbance values at 570 nm were subtracted from 450 nm to account for background. TNF-α concentration was normalised to total protein count (mg), as quantified by a BCA assay, and reported as pg/mg protein.

[4] = BV-2 cells pre-treated with LPS for 4 h, then 10 µM compound

With `O=C(O)c1cccc(NS(=O)(=O)c2ccc(Cl)c(Cl)c2)c1` [MFP-0012328] the “reduction of ROS production vs LPS-treated BV-2 cells” value (LPS-activated BV-2 cells [1]; 5 nM FABP4 siRNA, 10 µM MFP-0012328, or both, with 1 µg/mL LPS 24 h, range over the three treatments) was 36.6–61.2%, the “further reduction of ROS levels in FABP4 siRNA treated cells” value (LPS-activated BV-2 cells [1]; 10 µM plus 5 nM FABP4 siRNA, 1 µg/mL LPS 24 h) was “not able to reduce ROS levels any further” and the “reduction of ROS production vs LPS-alone” value (LPS-activated BV-2 cells [1]; [4]) was 27.8%. For the same compound, the “fold reduction in cell viability” value (BV-2 cells; 75 µM and 100 µM of MFP-0012328, 100 µM of the other MFP compounds, range over the compounds) was 0.17–0.27 fold, the “BV-2 cell viability relative to vehicle control” value (BV-2 cells; 2–50 µM, MTT) was “no significant differences” and the “reduction of TNF-α mRNA levels relative to LPS alone” value (LPS-activated BV-2 cells [2]) was 17%. For the same compound, the “reduction in extracellular concentration of TNF-α relative to LPS-only” value (LPS-activated BV-2 cells [3]; 10 µM, 1 µg/mL LPS 24 h) was 25% and 24.8% and the “reduction of TNF-α release vs LPS-alone” value (LPS-activated BV-2 cells [3]; [4]) was 15.7%.
